# From patent US8883782B2, “Spiro-tetracyclic ring compounds as beta-secretase modulators and methods of use” (Amgen Inc., priority 2010, dated 2014)
# Like-named read-outs stand apart in the source and are kept apart here.
# What was measured:
# [1] = tested on: Aβ40 in conditioned medium of cells stably expressing Amyloid Precursor Protein (APP); test: In vitro BACE cell-based assay (Aβ40 in conditioned medium, sandwich ELISA); conditions: read-out: HEK cell assay
# How it was run: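 Secreted Aβ40 is captured with pAb40 and detected with biotinylated 6E10, read by europium time-resolved fluorescence. IC50 comes from percent inhibition versus concentration.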
# [2] = target: Beta Secretase enzyme (BACE) (Homo sapiens, UniProt P56817); test: In vitro enzymatic BACE FRET (fluorescence resonance energy transfer) assay; assay type: biochemical; conditions: average IC50, enzyme assay; read-out: BACE 1 FRET assay
# How it was run: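 Enzyme activity was measured at pH 4.2 (0.05 M acetate, 10% DMSO final, 100 uM genapol) by cleavage of a 50 nM quenched fluorogenic peptide. After one hour, Tris was added to neutralise the pH and fluorescence was recorded.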
# [3] = Homo sapiens, HEK293, average IC50, HEK cells
# Sequence of Beta Secretase enzyme (BACE) (P56817 46-501, species assumed): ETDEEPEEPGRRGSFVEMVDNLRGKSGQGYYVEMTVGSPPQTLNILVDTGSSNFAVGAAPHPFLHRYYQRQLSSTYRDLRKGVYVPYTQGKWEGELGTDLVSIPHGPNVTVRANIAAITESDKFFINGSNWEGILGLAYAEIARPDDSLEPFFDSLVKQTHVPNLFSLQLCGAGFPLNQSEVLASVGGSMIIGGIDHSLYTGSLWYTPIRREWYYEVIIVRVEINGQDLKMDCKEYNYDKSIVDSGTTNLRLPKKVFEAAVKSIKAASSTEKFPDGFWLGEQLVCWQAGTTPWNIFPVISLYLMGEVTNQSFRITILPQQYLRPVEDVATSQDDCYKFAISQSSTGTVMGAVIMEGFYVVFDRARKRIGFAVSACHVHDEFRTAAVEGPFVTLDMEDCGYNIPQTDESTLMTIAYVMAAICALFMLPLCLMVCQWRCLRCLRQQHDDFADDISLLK
"IC50 [1, 3] [nM]",IC50 [2] [nM],"IC50 ([1]; average IC50, HEK cells) [nM]",Compound
154,30.3,,"Cc1ccnn1-c1cc(F)c2c(c1)[C@]1(COC(N)=N1)c1cc(-c3cccnc3)ccc1O2 [Example 634, (4S)-4′-fluoro-2′-(5-methyl-1H-pyrazol-1-yl)-7′-(3-pyridinyl)spiro[1,3-oxazole-4,9′-xanthen]-2-amine]"
23,2.4,,"Cc1ccn(-c2cc(F)c3c(c2)[C@]2(COC(N)=N2)c2cc(-c4cncnc4)ccc2O3)n1 [Example 635, (4S)-4′-fluoro-2′-(3-methyl-1H-pyrazol-1-yl)-7′-(5-pyrimidinyl)spiro[1,3-oxazole-4,9′-xanthen]-2-amine]"
273,28.8,,"Cc1ccnn1-c1cc(F)c2c(c1)[C@]1(COC(N)=N1)c1cc(-c3cncnc3)ccc1O2 [Example 636, (4S)-4′-fluoro-2′-(5-methyl-1H-pyrazol-1-yl)-7′-(5-pyrimidinyl)spiro[1,3-oxazole-4,9′-xanthen]-2-amine]"
62,2.1,,"CC(C)(C)C#Cc1cc2c(cn1)Oc1ccc(-c3cccnc3F)cc1C21CSC(N)=N1 (centres unmarked) [Example 637, 3-(3,3-dimethyl-1-butyn-1-yl)-7-(2-fluoro-3-pyridinyl)spiro[chromeno[2,3-c]pyridine-5,4′-[1,3]thiazol]-2′-amine]"
4,0.6,,"NC1=NC2(CS1)c1cc(-c3cccnc3F)ccc1Oc1c2cc(C2=CCOCC2)nc1F (centres unmarked) [Example 638, 3-(3,6-dihydro-2H-pyran-4-yl)-1-fluoro-7-(2-fluoro-3-pyridinyl)spiro[chromeno[2,3-c]pyridine-5,4′-[1,3]thiazol]-2′-amine]"
3,0.4,,"NC1=N[C@@]2(CO1)c1cc(-c3cccnc3)ccc1Oc1c2cc(C2=CCOCC2)nc1F [Example 639, (5S)-3-(3,6-dihydro-2H-pyran-4-yl)-1-fluoro-7-(3-pyridinyl)spiro[chromeno[2,3-c]pyridine-5,4′-[1,3]oxazol]-2′-amine]"
23,1.2,,"NC1=N[C@@]2(CO1)c1cc(-c3cccnc3F)ccc1Oc1c(F)cc(-c3ccc(F)nc3)cc12 [Example 640, (4S)-4′-fluoro-7′-(2-fluoro-3-pyridinyl)-2′-(6-fluoro-3-pyridinyl)spiro[1,3-oxazole-4,9′-xanthen]-2-amine]"
13,0.9,,"COC(C)(C)C#Cc1cnc2c(c1)[C@]1(COC(N)=N1)c1cc(-c3cncc(F)c3)c(F)cc1O2 [Example 641, (5S)-8-fluoro-7-(5-fluoro-3-pyridinyl)-3-(3-methoxy-3-methyl-1-butyn-1-yl)spiro[chromeno[2,3-b]pyridine-5,4′-[1,3]oxazol]-2′-amine]"
435,109,,"COC(C)(C)C#Cc1cnc2c(c1)[C@@]1(COC(N)=N1)c1cc(-c3cncc(F)c3)c(F)cc1O2 [Example 642, (5R)-8-fluoro-7-(5-fluoro-3-pyridinyl)-3-(3-methoxy-3-methyl-1-butyn-1-yl)spiro[chromeno[2,3-b]pyridine-5,4′-[1,3]oxazol]-2′-amine]"
15,1.1,,"COC(C)(C)C#Cc1cnc2c(c1)[C@]1(COC(N)=N1)c1cc(-c3cncnc3)c(F)cc1O2 [Example 643, (5S)-8-fluoro-3-(3-methoxy-3-methyl-1-butyn-1-yl)-7-(5-pyrimidinyl)spiro[chromeno[2,3-b]pyridine-5,4′-[1,3]oxazol]-2′-amine]"
228,68.2,,"COC(C)(C)C#Cc1cnc2c(c1)[C@@]1(COC(N)=N1)c1cc(-c3cncnc3)c(F)cc1O2 [Example 644, (5R)-8-fluoro-3-(3-methoxy-3-methyl-1-butyn-1-yl)-7-(5-pyrimidinyl)spiro[chromeno[2,3-b]pyridine-5,4′-[1,3]oxazol]-2′-amine]"

# More lines, now with the values behind:
Compound,"IC50 [1, 3] [nM]",IC50 [2] [nM],"IC50 ([1]; average IC50, HEK cells) [nM]"
"NC1=N[C@@]2(CO1)c1cc(-c3cncc(F)c3)ccc1Oc1c2cc(C2=CCOCC2)nc1F [Example 615, (5S)-3-(3,6-dihydro-2H-pyran-4-yl)-1-fluoro-7-(5-fluoro-3-pyridinyl)spiro[chromeno[2,3-c]pyridine-5,4′-[1,3]oxazol]-2′-amine]",2,0.3,
"NC1=N[C@@]2(CO1)c1cc(-c3c(F)ccnc3F)ccc1Oc1cnc(C3CCOCC3)cc12 [Example 616, (5S)-7-(2,4-difluoro-3-pyridinyl)-3-(tetrahydro-2H-pyran-4-yl)spiro[chromeno[2,3-c]pyridine-5,4′-[1,3]oxazol]-2′-amine]",176,17,
"NC1=N[C@@]2(CO1)c1cc(-c3c(F)ccnc3F)ccc1Oc1cnc([C@H]3CCCCO3)cc12 [Example 617, (5S)-7-(2,4-difluoro-3-pyridinyl)-3-((2R)-tetrahydro-2H-pyran-2-yl)spiro[chromeno[2,3-c]pyridine-5,4′-[1,3]oxazol]-2′-amine]",,5.2,42
"NC1=N[C@]2(CS1)c1cc(-c3cncc(F)c3)ccc1Oc1cnc(C3=CCOCC3)cc12 [Example 618, (5R)-3-(3,6-dihydro-2H-pyran-4-yl)-7-(5-fluoro-3-pyridinyl)spiro[chromeno[2,3-c]pyridine-5,4′-[1,3]thiazol]-2′-amine]",6670,369,
"NC1=N[C@@]2(CS1)c1cc(-c3cncc(F)c3)ccc1Oc1cnc(C3=CCOCC3)cc12 [Example 619, (5S)-3-(3,6-dihydro-2H-pyran-4-yl)-7-(5-fluoro-3-pyridinyl)spiro[chromeno[2,3-c]pyridine-5,4′-[1,3]thiazol]-2′-amine]",,0.4,8
"Cc1ccn(-c2cc(F)c3c(c2)[C@]2(COC(N)=N2)c2cc(-c4cccnc4F)ccc2O3)n1 [Example 620, (4S)-4′-fluoro-7′-(2-fluoro-3-pyridinyl)-2′-(3-methyl-1H-pyrazol-1-yl)spiro[1,3-oxazole-4,9′-xanthen]-2-amine]",68,2.8,
"CC1(C#Cc2cnc3c(c2)[C@]2(COC(N)=N2)c2cc(-c4cnccc4F)c(F)cc2O3)COC1 [Example 621, (5S)-8-fluoro-7-(4-fluoro-3-pyridinyl)-3-((3-methyl-3-oxetanyl)ethynyl)spiro[chromeno[2,3-b]pyridine-5,4′-[1,3]oxazol]-2′-amine]",5,0.6,
"CC1(C#Cc2cnc3c(c2)[C@@]2(COC(N)=N2)c2cc(-c4cnccc4F)c(F)cc2O3)COC1 [Example 622, (5R)-8-fluoro-7-(4-fluoro-3-pyridinyl)-3-((3-methyl-3-oxetanyl)ethynyl)spiro[chromeno[2,3-b]pyridine-5,4′-[1,3]oxazol]-2′-amine]",452,105,
"CC1(C#Cc2cnc3c(c2)[C@]2(COC(N)=N2)c2cc(-c4cncc(F)c4)c(F)cc2O3)COC1 [Example 623, (5S)-8-fluoro-7-(5-fluoro-3-pyridinyl)-3-((3-methyl-3-oxetanyl)ethynyl)spiro[chromeno[2,3-b]pyridine-5,4-[1,3]oxazol]-2′-amine]",9,0.9,
"CC1(C#Cc2cnc3c(c2)[C@@]2(COC(N)=N2)c2cc(-c4cncc(F)c4)c(F)cc2O3)COC1 [Example 624, (5R)-8-fluoro-7-(5-fluoro-3-pyridinyl)-3-((3-methyl-3-oxetanyl)ethynyl)spiro[chromeno[2,3-b]pyridine-5,4′-[1,3]oxazol]-2′-amine]",762,986,
"CC1(C#Cc2cnc3c(c2)[C@@]2(COC(N)=N2)c2cc(-c4cncc(Cl)c4)c(F)cc2O3)COC1 [Example 625, (5R)-7-(5-chloro-3-pyridinyl)-8-fluoro-3-((3-methyl-3-oxetanyl)ethynyl)spiro[chromeno[2,3-b]pyridine-5,4′-[1,3]oxazol]-2′-amine]",2210,901,
"CC1(C#Cc2cnc3c(c2)[C@]2(COC(N)=N2)c2cc(-c4cncc(Cl)c4)c(F)cc2O3)COC1 [Example 626, (5S)-7-(5-chloro-3-pyridinyl)-8-fluoro-3-((3-methyl-3-oxetanyl)ethynyl)spiro[chromeno[2,3-b]pyridine-5,4′-[1,3]oxazol]-2′-amine]",6,0.8,
"N#Cc1cnc2c(c1)C1(CSC(N)=N1)c1cc(-c3cccnc3F)ccc1O2 (centres unmarked) [Example 627, 2′-amino-7-(2-fluoro-3-pyridinyl)spiro[chromeno[2,3-b]pyridine-5,4′-[1,3]thiazole]-3-carbonitrile]",1590,626,
"CC(C)(C)C#Cc1cnc2c(c1)[C@]1(CSC(N)=N1)c1cc(-c3cncnc3)ccc1O2 [Example 629, (5S)-3-(3,3-dimethyl-1-butyn-1-yl)-7-(5-pyrimidinyl)spiro[chromeno[2,3-b]pyridine-5,4′-[1,3]thiazol]-2′-amine]",7,0.6,
"NC1=N[C@@]2(CO1)c1cc(-c3cncc(F)c3)ccc1Oc1c2cc(-c2cccnc2)nc1F [Example 630, (5S)-1-fluoro-7-(5-fluoro-3-pyridinyl)-3-(3-pyridinyl)spiro[chromeno[2,3-c]pyridine-5,4′-[1,3]oxazol]-2′-amine]",11,0.3,
"Cc1ccnn1-c1cc(F)c2c(c1)[C@]1(COC(N)=N1)c1cc(O)ccc1O2 [Example 631, (4S)-2-amino-5′-fluoro-7′-(5-methyl-1H-pyrazol-1-yl)spiro[1,3-oxazole-4,9′-xanthen]-2′-ol]",184,21.4,
"Cc1ccn(-c2cc(F)c3c(c2)[C@]2(COC(N)=N2)c2cc(-c4cccnc4)ccc2O3)n1 [Example 633, (4S)-4′-fluoro-2′-(3-methyl-1H-pyrazol-1-yl)-7′-(3-pyridinyl)spiro[1,3-oxazole-4,9′-xanthen]-2-amine]",34,3.9,
